Results: patent publication US20030166648A1, “Felbamate derived compounds” (priority 2002, published 2003)

Columns and labels:
Type in all cases: in vivo
[1] = tested on: MES-induced seizure spread; assay: Maximal electroshock seizure (MES) test, mice i.p.; conditions: for MES, number of animals protected/total number tested: mice i.p.
Excerpt: (§1) The fluoro derivatives synthesized were submitted to the National Institute of Neurological Disorders and Stroke (NINDS) for evaluation in a standard panel of assays. Two convulsant tests (MES and scMET), and a toxicity screen (rotorod in mice, positional sense and gait in rats) were employed for evaluating the compounds activity as neuroprotecting agents. These testing procedures are described in detail in Molecular and Cellular Targets for Anti-epileptic Drugs, eds. G. Avanzini, G. Regesta, P. Tanganelli, M. Avoli, 1997, John Libbey & Company Ltd, pp 191-198. The felbamate derivatives were evaluated for anticonvulsant activity following intraperitoneal (i.p.) administration in mice and oral administration in rats.
(§2) The Maximal Electroshock Seizure (MES)
(§3) The MES test is a model for generalized tonic-clonic seizures and is used to identify compounds which prevent seizure spread. The behavioral and electrographic seizures generated in this model are consistent with the human disorder. In the MES test, an electrical stimulus of 0.2 s in duration (50 mA in mice and 150 mA in rat at 60 Hz) was delivered via corneal electrodes primed with an electrolyte solution containing an anesthetic agent. Mice were tested at 30 minutes and 4 hours following doses of 30, 100 and 300 mg/kg of test compound. Rats were tested at time intervals between 0.25 and 4 hours following a standard oral dose of 30 mg/kg. Abolition of the hindlimb tonic extensor component indicates the test compound's ability to inhibit MES-induced seizure spread.
(§4) For the MES and scMET tests the data is presented in the form of the number of animals protected by the administered compound/total number of animals tested. […] Qualitative data was obtained for fluoro felbamate 12 (Tables 1 and 2A), fluoro monocarbamate felbamate 13 (Tables 1 and 2B), and fluorodioxo 16 (Tables 1 and 2C) and for cyclic felbamate 21 (Tables 5 and 6B) and cyclic monocarbamate 22 (Tables 5 and 6A). More extensive quantitative data was also obtained for fluoro felbamate 12 in mice (Table 3) and rats (Table 4).

[2] = Minimal neurotoxicity (TOX), rotorod test, mice i.p.; conditions: mice i.p.
Excerpt: as §1, with “G. Avanzini, G. Regesta, P. Tanganelli, M. Avoli, 1997, John Libbey & Company Ltd, pp 191-198.” left out, “rats. […]” for “rats.”

[3] = Minimal neurotoxicity (TOX), positional sense and gait and stance tests, rats p.o.; conditions: rat p.o., 30 mg/kg
Excerpt: as §1, with “G. Avanzini, G. Regesta, P. Tanganelli, M. Avoli, 1997, John Libbey & Company Ltd, pp 191-198.” left out
Rats are examined for behavioral toxicity by the positional sense test and a gait and stance test. […] In the gait and stance test, neurotoxicity is indicated by a circular or zigzag gait, ataxia, abnormal spread of the legs, abnormal posture, tremor hyperactivity, lack of exploratory behavior, somnolence, stupor or catalepsy. […]

[4] = tested on: MES-induced seizure spread; assay: Maximal electroshock seizure (MES) test, rats p.o.; conditions: for anti-seizure activity in rats (in words): rat models; for MES, number of animals protected/total number tested: rat p.o., 30 mg/kg
Excerpt: as §1, §2, §3, §4

[5] = tested on: pentylenetetrazol-induced clonic seizures; assay: Subcutaneous Metrazol seizure test (scMET), mice i.p.
Excerpt: as §1
The Subcutaneous (Metrazol) Seizure Test (scMET)
This is a model that primarily identifies compounds that raise seizure threshold. With some minor exceptions, the pharmacological profile of the scMET seizure model is consistent with the human condition. The scMET test utilizes a dose of pentylenetetrazol (85 mg/kg in Carworth Farms No. 1 mice and 70 mg/kg in Sprague-Dawley rats) that induces clonic seizures lasting for a period of at least five seconds in 97% (CD97) of animals tested. At the anticipated time of testing the convulsant is administered subcutaneously. The test compound is administered intraperitoneally in mice and orally in rats. Animals are observed over a 30 minute period. Absence of clonic spasms in the observed time period indicates a compound's ability to abolish the effect of pentylenetetrazol on seizure threshold.
as §4

seizures = assay: NINDS anticonvulsant panel (MES, scMET), overall statements; conditions: overall statement
Excerpt: as §1, §4

## NC(=O)OCC1(c2ccccc2)COC(=O)N1 (stereo not shown) [cyclic felbamate]
[1]; 30 mg/kg, 0.5 h
  MES, number of animals protected/total number tested: 0/1
[1]; 30 mg/kg, 4.0 h
  MES, number of animals protected/total number tested: 0/1
[1]; 100 mg/kg, 0.5 h
  MES, number of animals protected/total number tested: 0/3
[1]; 100 mg/kg, 4.0 h
  MES, number of animals protected/total number tested: 0/3
[1]; 300 mg/kg, 0.5 h
  MES, number of animals protected/total number tested: 0/1
[1]; 300 mg/kg, 4.0 h
  MES, number of animals protected/total number tested: 0/1
[2]; 30 mg/kg, 0.5 h
  TOX, number of animals exhibiting toxic effects/total number tested: 0/4
[2]; 30 mg/kg, 4.0 h
  TOX, number of animals exhibiting toxic effects/total number tested: 0/2
[2]; 100 mg/kg, 0.5 h
  TOX, number of animals exhibiting toxic effects/total number tested: 0/8
[2]; 100 mg/kg, 4.0 h
  TOX, number of animals exhibiting toxic effects/total number tested: 0/4
[2]; 300 mg/kg, 0.5 h
  TOX, number of animals exhibiting toxic effects/total number tested: 0/4
[2]; 300 mg/kg, 4.0 h
  TOX, number of animals exhibiting toxic effects/total number tested: 0/2
[3]; 0.25 h
  TOX, number of animals exhibiting toxic effects/total number tested: 0/4
[3]; 0.5 h
  TOX, number of animals exhibiting toxic effects/total number tested: 0/4
[3]; 1.0 h
  TOX, number of animals exhibiting toxic effects/total number tested: 0/4
[3]; 2.0 h
  TOX, number of animals exhibiting toxic effects/total number tested: 0/4
[3]; 4.0 h
  TOX, number of animals exhibiting toxic effects/total number tested: 0/4
[4]
  anti-seizure activity in rats (in words): potent activity
[4]; 0.25 h
  MES, number of animals protected/total number tested: 2/4
[4]; 0.5 h
  MES, number of animals protected/total number tested: 2/4
[4]; 1.0 h
  MES, number of animals protected/total number tested: 3/4
[4]; 2.0 h
  MES, number of animals protected/total number tested: 0/4
[4]; 4.0 h
  MES, number of animals protected/total number tested: 3/4
[5]; 30 mg/kg, 0.5 h
  ScMET, number of animals protected/total number tested: 0/1
[5]; 30 mg/kg, 4.0 h
  ScMET, number of animals protected/total number tested: 0/1
[5]; 100 mg/kg, 0.5 h
  ScMET, number of animals protected/total number tested: 0/1
[5]; 100 mg/kg, 4.0 h
  ScMET, number of animals protected/total number tested: 0/1
[5]; 300 mg/kg, 0.5 h
  ScMET, number of animals protected/total number tested: 0/1
[5]; 300 mg/kg, 4.0 h
  ScMET, number of animals protected/total number tested: 0/1

## O=C1NC(=O)C(F)(c2ccccc2)CO1 (stereo not shown) [fluoro dioxo, 5-Fluoro-5-phenyl-1,3-oxazinane2,4-dione]
[1]; mice, MES and scMET (Table 1)
  anti-seizure activity in mice (in words): inactive
[2]; 30 mg/kg, 0.5 h
  TOX, number of animals exhibiting toxic effects/total number tested: 0/4
[2]; 30 mg/kg, 4.0 h
  TOX, number of animals exhibiting toxic effects/total number tested: 0/2
[2]; 100 mg/kg, 0.5 h
  TOX, number of animals exhibiting toxic effects/total number tested: 0/8
[2]; 100 mg/kg, 4.0 h
  TOX, number of animals exhibiting toxic effects/total number tested: 0/4
[2]; 300 mg/kg, 0.5 h
  TOX, number of animals exhibiting toxic effects/total number tested: 1/4
[2]; 300 mg/kg, 4.0 h
  TOX, number of animals exhibiting toxic effects/total number tested: 0/2
[3]; 0.25 h
  TOX, number of animals exhibiting toxic effects/total number tested: 0/4
[3]; 0.5 h
  TOX, number of animals exhibiting toxic effects/total number tested: 0/4
[3]; 1.0 h
  TOX, number of animals exhibiting toxic effects/total number tested: 0/4
[3]; 2.0 h
  TOX, number of animals exhibiting toxic effects/total number tested: 0/4
[3]; 4.0 h
  TOX, number of animals exhibiting toxic effects/total number tested: 0/4
[4]
  anti-seizure activity in rats (in words): strong anti-seizure activity

## NC(=O)OCC(F)(CO)c1ccccc1 (stereo not shown) [fluoro monocarbamate felbamate, 2-Fluoro-2-phenyl-1,3-propanediol monocarbamate]
[1]; mice, 100 mg/kg
  MES protection (in words): moderate MES protection
[2]; 30 mg/kg, 0.5 h
  TOX, number of animals exhibiting toxic effects/total number tested: 0/4
[2]; 30 mg/kg, 4.0 h
  TOX, number of animals exhibiting toxic effects/total number tested: 0/2
[2]; 100 mg/kg, 0.5 h
  TOX, number of animals exhibiting toxic effects/total number tested: 3/8
[2]; 100 mg/kg, 4.0 h
  TOX, number of animals exhibiting toxic effects/total number tested: 0/4
[2]; 300 mg/kg, 0.5 h
  TOX, number of animals exhibiting toxic effects/total number tested: 2/4
[2]; 300 mg/kg, 4.0 h
  TOX, number of animals exhibiting toxic effects/total number tested: 0/2
[3]; 0.25 h
  TOX, number of animals exhibiting toxic effects/total number tested: 0/4
[3]; 0.5 h
  TOX, number of animals exhibiting toxic effects/total number tested: 0/4
[3]; 1.0 h
  TOX, number of animals exhibiting toxic effects/total number tested: 0/4
[3]; 2.0 h
  TOX, number of animals exhibiting toxic effects/total number tested: 0/4
[3]; 4.0 h
  TOX, number of animals exhibiting toxic effects/total number tested: 0/4
seizures
  anti-seizure activity (in words): show anti-seizure activity
